Laboratory results reported in PubChem BioAssay (NCI).
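Tested at 5 concentrations; 48 h exposure; 96-well plates; endpoints linearly interpolated, else capped at highest concentration. Here, GI50 denotes the concentration required for 50% inhibition of growth. TGI is the concentration that stops growth completely.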

Legend:
Assay in all cases: NCI-60 cell line screen, 48 h
[1] = tested on: COLO 205 colon
[2] = tested on: HT29 colon
[3] = tested on: NCI-H226 lung
[4] = tested on: RPMI-8226 leukemia
[5] = tested on: RXF 393 renal
[6] = tested on: SF-295 CNS
[7] = tested on: SK-OV-3 ovarian
[8] = tested on: SN12C renal
[9] = tested on: UACC-62 melanoma
[10] = tested on: SNB-75 CNS

Row | Compound | TGI [1] [µM] | TGI [2] [µM] | TGI [3] [µM] | TGI [4] [µM] | TGI [5] [µM] | TGI [6] [µM] | TGI [7] [µM] | TGI [8] [µM] | TGI [9] [µM] | TGI [10] [µM] | GI50 [1] [µM] | GI50 [2] [µM] | GI50 [3] [µM] | GI50 [5] [µM] | GI50 [6] [µM] | GI50 [7] [µM] | GI50 [8] [µM] | GI50 [10] [µM] | GI50 [9] [µM]
1 | O=C(c1ccccc1)C1C(c2ccccc2[N+](=O)[O-])N1C1CCCCC1 (stereo not drawn) | 20.4 | 16.4 | 34 | 4.68 | 17 | 35.3 | > 60.9 | 15.6 | 20.6 | – | – | – | – | – | – | – | – | – | –
2 | CCOC(=O)/C(=C/c1cn(C(C)=O)c2ccccc12)P(=O)(OC)OC | – | > 100 | – | 50.7 | – | > 100 | > 100 | > 100 | – | 60.1 | – | – | – | – | – | – | – | – | –
3 | Clc1ccc(C2=CC(c3ccccc3)N3C(=N[C@H]4CCCC[C@@H]43)N2)cc1 (stereo partly drawn) | 4.23 | 10.2 | 23 | 7.02 | 8.44 | 20.3 | 27.9 | – | 18.6 | 13.6 | – | – | – | – | – | – | – | – | –
4 | CN=C1C=C(/N=C2/C=C(N/C(=C\C#N)C(C)(C)O)OC2(C)C)OC1(C)C | > 100 | > 100 | > 100 | > 69.6 | – | > 100 | > 73.6 | > 100 | > 85.8 | > 64 | – | – | – | – | – | – | – | – | –
5 | c1csc(-c2cc(-c3ccsc3)cs2)c1 | > 100 | > 100 | – | > 100 | > 100 | > 100 | > 100 | > 100 | > 100 | > 100 | – | – | – | – | – | – | – | – | –
6 | COc1ccc(C=C2C(C)=NN(c3cccc(Cl)c3)C23C(Cl)C(=O)N3c2nc3ccccc3s2)cc1 (stereo not drawn) | – | 24.4 | 79.1 | > 100 | 28 | 50.9 | 89.7 | – | – | – | – | – | – | – | – | – | – | – | –
7 | CCn1c(-c2cc3ccccc3cc2OC(C)=O)n[nH]c1=S | – | > 100 | > 100 | 44.6 | 33.5 | > 100 | > 100 | – | – | – | – | – | – | – | – | – | – | – | –
8 | CCOC(=O)CC1(N)CC2c3ccccc3OC(=O)C2C(=O)N1 (stereo not drawn) | > 100 | > 100 | > 100 | > 100 | > 100 | – | – | > 100 | > 100 | > 100 | – | – | – | – | – | – | – | – | –
9 | COc1ccc(C2CC(c3cccc(Nc4ccncc4)c3)=NN2c2ccccc2)cc1 (stereo not drawn) | 6.14 | 6.87 | 8.83 | – | 3.02 | 3.32 | 20.9 | 3.23 | 3.21 | 5.23 | 2.66 | 2.47 | 2.31 | 1.55 | 1.8 | 5.53 | 1.72 | 1.55 | 1.74
10 | O=C(Nc1nnc(-c2ccccc2)o1)C(SC(=S)N1CCCC1)c1ccccc1 (stereo not drawn) | > 100 | > 100 | > 100 | > 100 | > 100 | > 100 | > 100 | > 100 | – | > 100 | – | – | – | – | – | – | – | – | –
11 | CCOC(=O)CCC(NC(=O)c1ccc(NCc2ccc3nc(OC)c(OC)nc3c2)c2ccccc12)C(=O)OCC (stereo not drawn) | > 100 | > 100 | > 100 | – | > 100 | > 100 | > 100 | > 100 | > 100 | > 100 | – | – | – | – | – | – | – | – | –
12 | CC(CSc1nc2c(c(=N)n1-c1ccccc1)c(=S)n(-c1ccccc1)c(=S)n2-c1ccccc1)CN(C)C (stereo not drawn) | 3.48 | – | 14.2 | 1.4 | 3.32 | 16.7 | 11.6 | 3.55 | 3.15 | 3.41 | – | – | – | – | – | – | – | – | –
13 | COC(=O)c1sc2c(Cl)c(Cl)sc2c1Cl | > 100 | > 100 | > 100 | – | > 100 | > 100 | > 100 | > 100 | > 100 | > 100 | – | – | – | – | – | – | – | – | –
14 | COc1ccc(Nc2nc(N)c(C(=O)c3ccco3)s2)cc1 | > 100 | > 100 | > 72.2 | > 85.4 | > 77.6 | > 100 | > 100 | > 100 | > 100 | – | – | – | – | – | – | – | – | – | –
15 | COC1=C(OC)C(=O)C(Cc2c(-c3ccccc3)nc3sc(Cl)cn23)=C(C)C1=O | 33.5 | 41.7 | – | 34.9 | 33.3 | 34.3 | 37.8 | 30.4 | 24.6 | – | – | – | – | – | – | – | – | – | –
16 | COc1cc2c(cc1OC)C(C1CC1)ON(C)CC2 (stereo not drawn) | > 100 | > 100 | > 100 | > 100 | > 100 | > 100 | – | > 100 | > 100 | > 100 | – | – | – | – | – | – | – | – | –
17 | Cc1cc(C)n(C(C)(C(=O)Cc2ccccc2)n2nc(C)cc2C)n1 | > 100 | > 100 | > 100 | > 100 | > 100 | > 100 | > 100 | > 100 | > 100 | – | – | – | – | – | – | – | – | – | –
18 | O=C(CN1CCCC1)Nc1ccc2c(c1)C1Oc3ccccc3CC1CO2 (stereo not drawn) | 27.8 | – | > 100 | 78.9 | – | 39.7 | > 100 | > 100 | 33 | – | – | – | – | – | – | – | – | – | –
19 | O=c1[nH]c2ccccc2c(=O)n1/N=C\c1ccccc1O | > 100 | > 100 | > 100 | > 100 | – | > 100 | > 100 | > 100 | > 100 | > 100 | – | – | – | – | – | – | – | – | –
20 | CC1OC23CCCCC2C(C#N)(C#N)C1(C#N)C(=N)O3 (stereo not drawn) | 38.5 | > 100 | > 100 | – | 44.5 | > 100 | > 100 | 30.1 | – | > 100 | – | – | – | – | – | – | – | – | –
21 | COC(=O)c1c2c(cc3c1CC1(Cc4cc5c(cc4C1)CCCC5)C3)CCCC2 | > 100 | > 100 | – | > 100 | 67.3 | > 100 | > 100 | > 100 | > 100 | – | – | – | – | – | – | – | – | – | –
22 | Nc1c(-c2ccccc2)c2ccc([N+](=O)[O-])cc2c(=O)n1-c1cccc(C(=O)O)c1 | – | > 100 | > 100 | > 100 | > 100 | > 100 | > 100 | – | > 100 | > 100 | – | – | – | – | – | – | – | – | –
23 | C[C@]12CC[C@H]3[C@@H](CCC4=C/C(=N/OCCN5CCCCC5)CC[C@@]43C)[C@@H]1CC[C@@H]2O | 47.3 | 15.2 | 48.4 | 24.9 | 40.8 | 29.3 | 30.3 | 38.2 | – | 22.4 | – | – | – | – | – | – | – | – | –
24 | Cc1cc(S(=O)(=O)NC2=NCc3c(F)cccc3N2)c(S)cc1Cl | > 100 | – | > 100 | > 100 | > 100 | > 100 | – | > 100 | > 100 | > 100 | – | – | – | – | – | – | – | – | –
